Experiments:
[1] = system: patients with relapsed or refractory peripheral T-cell lymphoma (R/R PTCL); assay: Expansion phase (PRIMO-EP) of the trial in R/R PTCL: duvelisib 75 mg BID for 2 cycles, then 25 mg BID; format: in vivo, human; conditions: for AESI Cutaneous reactions, % / AESI Diarrhea, % / AESI Infections, % / AESI Neutropenia/neutrophil count decreased, % / AESI Pneumonia, % / AESI Pneumonitis, % / AESI Transaminase elevation, % / AESI Colitis, %: all grades
Procedure: An expansion phase of the above trial described in Example 1 was carried out. Based on the dose optimization results, patients in the expansion phase received duvelisib at 75 mg BID for 2 cycles to maximize rapid tumor control, followed by 25 mg BID to maintain long-term disease control and mitigate late toxicities, until progressive disease (PD) or unacceptable toxicity. The primary endpoint was the overall response rates (ORR) as assessed by the Independent Review Committee (IRC), and secondary endpoints included ORR by INV assessment, duration of response (DOR), progression free survival (PFS), overall survival (OS), disease control rate (DCR), and safety. […] Analysis was performed on data collected from a total of 101 patients with a median follow-up of 8.7 months from time of first response. All patients had pathologically confirmed PTCL (WHO criteria) with a CD4 lymphocyte count of ≥50/mm^3 and received ≥2 cycles of ≥1 prior standard regimen. Prior treatments received included CHOP/R-CHOP, CHOEP/EPOCH, or BV/BV-chemo (all 36.60% r), salvage chemo after CHOP/R-CHOP or CHOEP/EPOCH (37.60), and SCT (21.80). The mean treatment duration was 17.1 weeks, and the median (range) treatment duration was 9.0 (1-79) weeks. Exposure by treatment duration included 43.6% (≤2 cycles), 23.8% (>2-4 cycles), and […] (>4 cycles). The ORR by IRC was […]. In patients with ≥3 prior lines, the ORR was maintained (49.10%).

[2] = system: patients with relapsed or refractory peripheral T-cell lymphoma (R/R PTCL); assay: Phase 2 open-label parallel cohort trial of duvelisib in R/R PTCL, dose-optimization phase (25 mg BID vs 75 mg BID); format: in vivo, human; conditions: for overall response rate (ORR): 28-day cycles, oral
Procedure: Prior to the present disclosure, Applicant ran a clinical trial using duvelisib to treat PTCL. The trial included two cohorts. In cohort 1, subjects were orally administered duvelisib at a starting dose of 25 mg twice daily (BID), with potential escalation on a per-patient basis to 50 mg BID and then 75 mg BID, based on the patient's response to and tolerance of therapy. Doses were administered in 28-day cycles. In cohort 2, subjects were orally administered 75 mg duvelisib BID, in 28-day cycles. The overall response rate (ORR) in the 75 mg BID cohort was 54% ORR.
A phase 2, open-label, multi-center, parallel cohort trial of duvelisib in R/R PTCL was carried out. Patients were treated with duvelisib for two 28-day cycles with either 25 mg BID (DUV25) or 75 mg BID (DUV75). Patients with pathologically confirmed R/R PTCL (WHO criteria) after ≥2 cycles of ≥1 prior standard regimen, and a CD4 lymphocyte count of ≥50/mm^3 were eligible for enrollment in the study.

[3] = Prior Salvage Chemotherapy CHOP/R-CHOP or CHOEP/EPOCH
[4] = all causality, 1 prior regimen (N = 26)
[5] = all causality, 2 prior regimens (N = 22)
[6] = all causality, 3+ prior regimens (N = 53)
[7] = all causality, Tx Duration >2-4 cycles (N = 56)
[8] = all causality, Tx Duration >4 cycles (N = 31)
[9] = all causality, Tx Duration ≤2 cycles (N = 101)

SMILES: C[C@H](Nc1ncnc2[nH]cnc12)c1cc2cccc(Cl)c2c(=O)n1-c1ccccc1 [duvelisib, (S)-3-(1-((9H-purin-6-yl)amino)ethyl)-8-chloro-2-phenylisoquinolin-1(2H)-one]
- Response (CR + PR) by number of prior regimens ([1]; 1 prior regimen (n = 26)): 34.6%
- Response (CR + PR) by number of prior regimens ([1]; 2 prior regimens (n = 22)): 63.6%
- Response (CR + PR) by number of prior regimens ([1]; 3+ prior regimens (n = 53)): 49.1%
- TEAEs leading to dose hold ([1]; % of patients): 37.6%
- TEAEs leading to dose reduction ([1]; % of patients): 3.0%
- diarrhea ([1]; AE, all causality, maximum GR3): 7.9%
- increased alanine aminotransferase (ALT) ([1]; AE, all causality, maximum GR3): 14.9%
- increased aspartate aminotransferase (AST) ([1]; AE, all causality, maximum GR3): 13.4%
- neutropenia ([1]; AE, all causality, maximum GR3): 13.8%
- rash maculo-papular ([1]; AE, all causality, maximum GR3): 7.9%
- increased ALT ([1]; AE, all causality, maximum GR4): 5.9%
- Median (range) PFS ([1]; N = 101): 3.62 (0.03+-17.2+) months
- deaths in TEAEs other than PD (total) ([1]; N = 101): 8
- BOR by prior therapy: CR ([1]; Prior BV or BV-chemo): 32.4 % of subgroup
- BOR by prior therapy: PR ([1]; Prior BV or BV-chemo): 10.8 % of subgroup
- BOR by prior therapy: SD ([1]; Prior BV or BV-chemo): 0 % of subgroup
- BOR by prior therapy: CR ([1]; Prior CHOEP/EPOCH): 27.0 % of subgroup
- BOR by prior therapy: PR ([1]; Prior CHOEP/EPOCH): 27.0 % of subgroup
- BOR by prior therapy: SD ([1]; Prior CHOEP/EPOCH): 0 % of subgroup
- BOR by prior therapy: CR ([1]; Prior CHOP/R-CHOP): 37.8 % of subgroup
- BOR by prior therapy: PR ([1]; Prior CHOP/R-CHOP): 5.4 % of subgroup
- BOR by prior therapy: SD ([1]; Prior CHOP/R-CHOP): 2.7 % of subgroup
- BOR by prior therapy: CR ([1]; Prior SCT): 22.7 % of subgroup
- BOR by prior therapy: PR ([1]; Prior SCT): 27.3 % of subgroup
- BOR by prior therapy: SD ([1]; Prior SCT): 0 % of subgroup
- BOR by prior therapy: CR [1, 3]: 44.7 % of subgroup
- BOR by prior therapy: PR [1, 3]: 7.9 % of subgroup
- BOR by prior therapy: SD [1, 3]: 0 % of subgroup
- AESI Cutaneous reactions, % [1, 4]: (38.5) %
- AESI Diarrhea, % [1, 4]: (15.4) %
- AESI Infections, % [1, 4]: (30.8) %
- AESI Neutropenia/neutrophil count decreased, % [1, 4]: (38.5) %
- AESI Pneumonia, % [1, 4]: (3.8) %
- AESI Pneumonitis, % [1, 4]: (3.8) %
- AESI Transaminase elevation, % [1, 4]: (65.4) %
- AESI Cutaneous reactions, % [1, 5]: (54.5) %
- AESI Diarrhea, % [1, 5]: (27.3) %
- AESI Infections, % [1, 5]: (31.8) %
- AESI Neutropenia/neutrophil count decreased, % [1, 5]: (27.3) %
- AESI Transaminase elevation, % [1, 5]: (40.9) %
- AESI Colitis, % [1, 6]: (1.9) %
- AESI Cutaneous reactions, % [1, 6]: (24.5) %
- AESI Diarrhea, % [1, 6]: (39.6) %
- AESI Infections, % [1, 6]: (49.1) %
- AESI Neutropenia/neutrophil count decreased, % [1, 6]: (32.1) %
- AESI Pneumonia, % [1, 6]: (3.8) %
- AESI Pneumonitis, % [1, 6]: (1.9) %
- AESI Transaminase elevation, % [1, 6]: (34.0) %
- AESI Cutaneous reactions, % [1, 7]: (28.6) %
- AESI Diarrhea, % [1, 7]: (14.3) %
- AESI Infections, % [1, 7]: (16.1) %
- AESI Neutropenia/neutrophil count decreased, % [1, 7]: (14.3) %
- AESI Pneumonitis, % [1, 7]: (1.8) %
- AESI Transaminase elevation, % [1, 7]: (30.4) %
- AESI Colitis, % [1, 8]: (3.2) %
- AESI Cutaneous reactions, % [1, 8]: (22.6) %
- AESI Diarrhea, % [1, 8]: (22.6) %
- AESI Infections, % [1, 8]: (32.3) %
- AESI Neutropenia/neutrophil count decreased, % [1, 8]: (25.8) %
- AESI Pneumonia, % [1, 8]: (3.2) %
- AESI Cutaneous reactions, % [1, 9]: (19.8) %
- AESI Diarrhea, % [1, 9]: (19.8) %
- AESI Infections, % [1, 9]: (26.7) %
- AESI Neutropenia/neutrophil count decreased, % [1, 9]: (28.7) %
- AESI Pneumonia, % [1, 9]: (2.0) %
- AESI Pneumonitis, % [1, 9]: (1.0) %
- response rates regardless of number of prior regimens ([1]; all prior-regimen subgroups): ≥ 35%
- Median duration of response ([1]; all responders): 7.7 months
- increase of rate of cutaneous reactions ([1]; from Cycle ≤2 to Cycle >4): 2.8%
- increase of rate of diarrhea ([1]; from Cycle ≤2 to Cycle >4): 2.8%
- increase of rate of infections ([1]; from Cycle ≤2 to Cycle >4): 5.6%
- tolerability ([1]; interim results of the expansion phase): well tolerated
- Incidence of pneumonia, pneumonitis, and colitis ([1]; regardless of treatment duration, Cycle ≤2 to Cycle >4): 0-3.2%
- Median duration of response ([1]; those in CR): 7.4 months
- overall response rate (ORR) ([2]; 25 mg BID cohort (N=20)): 35%
- patients with disease progression, 25 mg BID cohort compared to 75 mg BID ([2]; 25 mg BID cohort vs 75 mg BID cohort): three times as many patients experienced disease progression
- overall response rate (ORR) ([2]; 75 mg BID cohort (N=13)): 54%
- Discontinuations due to AEs ([2]; DUV25, 25 mg BID): 30%
- TEAEs leading to discontinuation ([2]; DUV25, 25 mg BID): disease progression, pneumonitis (2 patients each), cardiac arrest, hypercalcemia, hyperglycemia, pneumonia, rash maculopapular, and respiratory failure (1 each)
- fatal AEs (number) ([2]; DUV25, 25 mg BID): 5
- Serious TEAEs occurred in ([2]; DUV25, 25 mg BID (n=15/20)): 75%
- Discontinuations due to AEs ([2]; DUV75, 75 mg BID): 8%
- TEAEs leading to discontinuation ([2]; DUV75, 75 mg BID): disease progression, infectious colitis, and sepsis (1 each)
- fatal AEs (number) ([2]; DUV75, 75 mg BID (disease progression)): 1
- Serious TEAEs occurred in ([2]; DUV75, 75 mg BID (n=9/13)): 69%
- manageability of most TEAEs ([2]; both cohorts): manageable with dose reductions and dose holds
- Serious TEAEs in ≥2 patients ([2]; both cohorts (N=33)): colitis, diarrhea, abdominal pain, pyrexia, PD, sepsis, pneumonia, hyponatremia, rash maculopapular, dyspnea, and respiratory failure
